Assay results: article PMC12669672, “Structural insights into selective and dual antagonism of EP2 and EP4 prostaglandin receptors” (The EMBO Journal, 2025)
pIC50: −log10 of the molar value. “And” between values parts separate entries of the source, which are not always exact repeats. Equal entries are not always repeated. Where two headings read alike, the source gives them in different places.

How the values were obtained:
Format in all cases: cell-based
[1] = target: T1, constitutively active EP4 V320A (Homo sapiens, UniProt P35408, V320A); assay: GloSensor cAMP assay, inhibition of constitutive activity
T1 construct: The full-length EP2 or EP4 was cloned into the pcDNA3.1 vector (Invitrogen), incorporating an N-terminal FLAG tag; expressed in transfected cells; host or cells: AD293
T1 sequence (P35408 whole entry V320A): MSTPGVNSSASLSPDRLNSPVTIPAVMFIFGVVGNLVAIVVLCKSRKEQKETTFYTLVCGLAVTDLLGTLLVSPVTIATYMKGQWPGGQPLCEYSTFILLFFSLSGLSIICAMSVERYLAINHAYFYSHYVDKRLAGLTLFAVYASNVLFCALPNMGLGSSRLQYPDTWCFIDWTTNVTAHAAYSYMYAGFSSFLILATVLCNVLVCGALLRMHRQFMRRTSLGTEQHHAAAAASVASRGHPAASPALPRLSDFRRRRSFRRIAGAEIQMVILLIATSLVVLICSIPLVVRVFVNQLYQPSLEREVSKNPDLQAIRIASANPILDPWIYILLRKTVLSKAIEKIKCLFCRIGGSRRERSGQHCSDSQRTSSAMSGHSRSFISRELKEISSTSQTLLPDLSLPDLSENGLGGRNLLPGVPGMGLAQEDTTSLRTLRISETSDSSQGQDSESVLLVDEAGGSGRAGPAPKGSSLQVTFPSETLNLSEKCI
Protocol: (§1) The full-length EP2 or EP4 was cloned into the pcDNA3.1 vector (Invitrogen), incorporating an N-terminal FLAG tag. AD293 cells were seeded in six-well plates containing DMEM supplemented with 10% dialyzed FBS 1 day prior to transfection. Following overnight growth, cells were transfected with a 1:1 ratio of receptor construct and GloSensor22F cAMP biosensor (Promega) plasmids.
(§2) Twenty-four hours post-transfection, the cells were transferred to CO2-independent media containing 2% GloSensor cAMP Reagent (Promega) and distributed into 384-well assay plates at a density of 4000 cells per well in 10 μL. […] The plates were then incubated at 37 °C for an additional hour before luminescence measurements were taken using an EnVision plate reader.
(§3) Data analysis was performed using GraphPad Prism software v8.0.1. A nonlinear regression analysis, employing a sigmoidal dose–response model, was conducted to determine the Emax values and half-maximum inhibitory concentrations (IC50) for each compound tested.

[2] = target: T2, constitutively active EP2 S305A (Homo sapiens, UniProt P43116, S305A); assay: as above
T2 construct: The full-length EP2 or EP4 was cloned into the pcDNA3.1 vector; FLAG (N); expressed in transfected cells; host or cells: AD293 cells
T2 sequence (P43116 whole entry S305A): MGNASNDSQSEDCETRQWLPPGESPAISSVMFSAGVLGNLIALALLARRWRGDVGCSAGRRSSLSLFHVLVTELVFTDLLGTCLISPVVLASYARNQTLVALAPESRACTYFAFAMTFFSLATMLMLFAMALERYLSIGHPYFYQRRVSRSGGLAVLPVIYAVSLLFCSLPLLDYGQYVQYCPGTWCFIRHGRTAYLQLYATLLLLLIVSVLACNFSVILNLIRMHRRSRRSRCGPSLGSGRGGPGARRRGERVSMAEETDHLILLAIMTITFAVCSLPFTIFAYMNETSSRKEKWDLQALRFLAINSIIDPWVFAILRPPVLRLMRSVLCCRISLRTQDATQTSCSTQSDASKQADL
Protocol: as §1, §2, §3

[3] = target: T3, constitutively active EP2 S86A (Homo sapiens, UniProt P43116, S86A); assay: as above
T3 construct: The full-length EP2 or EP4 was cloned into the pcDNA3.1 vector; FLAG (N); expressed in transfected cells; host or cells: AD293 cells
T3 sequence (P43116 whole entry S86A): as the sequence (P43116 whole entry S305A) above, with S86A, A305S counted along it
Protocol: as §1, §2, §3

[4] = target: T4, constitutively active EP2 WT (Homo sapiens, UniProt P43116); assay: as above
T4 construct: The full-length EP2 or EP4 was cloned into the pcDNA3.1 vector; FLAG (N); expressed in transfected cells; host or cells: AD293 cells
T4 sequence (P43116 whole entry): as the sequence (P43116 whole entry S305A) above, with A305S counted along it
Protocol: as §1, §2, §3

[5] = target: T5, constitutively active EP2 S308A (Homo sapiens, UniProt P43116, S308A); assay: as above
T5 construct: The full-length EP2 or EP4 was cloned into the pcDNA3.1 vector; FLAG (N); expressed in transfected cells; host or cells: AD293 cells
T5 sequence (P43116 whole entry S308A): as the sequence (P43116 whole entry S305A) above, with A305S, S308A counted along it
Protocol: as §1, §2, §3

[6] = target: T6, constitutively active EP2 T82A (Homo sapiens, UniProt P43116, T82A); assay: as above
T6 construct: The full-length EP2 or EP4 was cloned into the pcDNA3.1 vector; FLAG (N); expressed in transfected cells; host or cells: AD293 cells
T6 sequence (P43116 whole entry T82A): as the sequence (P43116 whole entry S305A) above, with T82A, A305S counted along it
Protocol: as §1, §2, §3

EP2-I85V = target: T7, EP2-I85V (Homo sapiens, UniProt P43116, I85V); assay: GloSensor cAMP assay, antagonism of PGE2-induced cAMP, chimeric studies; details: single experiments 1st-3rd
T7 construct: The full-length EP2 or EP4 was cloned into the pcDNA3.1 vector; FLAG (N); expressed in transfected cells; host or cells: AD293 cells
T7 sequence (P43116 whole entry I85V): as the sequence (P43116 whole entry S305A) above, with I85V, A305S counted along it
Protocol: as §1, §2, §3

EP2-M116L = target: T8, EP2-M116L (Homo sapiens, UniProt P43116, M116L); assay: as above; details: single experiments 1st-3rd
T8 construct: The full-length EP2 or EP4 was cloned into the pcDNA3.1 vector; FLAG (N); expressed in transfected cells; host or cells: AD293 cells
T8 sequence (P43116 whole entry M116L): as the sequence (P43116 whole entry S305A) above, with M116L, A305S counted along it
Protocol: as §1, §2, §3

[7] = no PGE2, pIC50 mutant - pIC50 WT, mean
[8] = 1 h, ligand log([M]) -10, Fig. S7B, read-out: % cAMP activity (normalized to WT)
[9] = 1 h, ligand log([M]) -11, Fig. S7B, read-out: % cAMP activity (normalized to WT)

`CCc1nnc(NS(=O)(=O)c2ccc(NC(=S)NC(=O)/C=C/c3ccc(F)cc3)cc2)s1` [TG6-129] was tested. Which pIC50 [1] did it give?
The pIC50 was 5.17.

And the remaining activity at 100 µM ([1]; 1 h, TG6-129 log([M]) -4.00, EP4-V320A, read-out: % cAMP activity (normalized to WT))?
Its remaining activity at 100 µM is 8.24%.

And the remaining activity at 20 µM ([1]; 1 h, TG6-129 log([M]) -4.70, EP4-V320A, read-out: % cAMP activity (normalized to WT))?
Its remaining activity at 20 µM is 16%.

And the remaining activity at […] ([1]; 1 h, TG6-129 log([M]) -5.40, EP4-V320A, read-out: % cAMP activity (normalized to WT))?
The remaining activity at […] was 41.7%.

What about the remaining activity at […] ([1]; 1 h, TG6-129 log([M]) -6.10, EP4-V320A, read-out: % cAMP activity (normalized to WT)) of the same molecule?
Its remaining activity at […] is 57.4%.

What about the remaining activity at […] ([1]; 1 h, TG6-129 log([M]) -6.80, EP4-V320A, read-out: % cAMP activity (normalized to WT)) of the same molecule?
Its remaining activity at […] is 59.5%.

And the remaining activity at 0.0324 µM ([1]; 1 h, TG6-129 log([M]) -7.49, EP4-V320A, read-out: % cAMP activity (normalized to WT))?
Its remaining activity at 0.0324 µM is 49.7%.

And the remaining activity at 0.00646 µM ([1]; 1 h, TG6-129 log([M]) -8.19, EP4-V320A, read-out: % cAMP activity (normalized to WT))?
The remaining activity at 0.00646 µM was 54.3%.

And the remaining activity at 0.00129 µM ([1]; 1 h, TG6-129 log([M]) -8.89, EP4-V320A, read-out: % cAMP activity (normalized to WT))?
The remaining activity at 0.00129 µM was 60.2%.

What about the “TG6-129 cAMP activity (∆pIC50 from EP4 WT), Mean” value ([1]; V320A, Mean) of the same molecule?
The value was -0.014.

And the “TG6-129 cAMP activity (∆pIC50 from EP4 WT)” value ([1]; V320A, single experiments 1st-3rd)?
The value was 0.016 and -0.105 and 0.048.

And the ΔpIC50 [1, 7]?
Its ΔpIC50 is -0.01 ± 0.04.

What about the pIC50 [2] of the same molecule?
Its pIC50 is 7.30.

And the “TG6-129 cAMP activity (∆pIC50 from EP2 WT), Mean” value ([2]; S305A, Mean)?
The value was 0.384.

What about the ΔpIC50 [2, 7] of the same molecule?
Its ΔpIC50 is 0.38 ± 0.10.

And the pIC50 [3]?
Its pIC50 is 6.22.

And the “TG6-129 cAMP activity (∆pIC50 from EP2 WT), Mean” value ([3]; S86A, Mean)?
The value was -0.670.

What about the “TG6-129 cAMP activity (∆pIC50 from EP2 WT)” value ([3]; S86A, single experiments 1st-3rd) of the same molecule?
The value was -0.744 and -0.540 and -0.726.

What about the ΔpIC50 [3, 7] of the same molecule?
Its ΔpIC50 is -0.67 ± 0.07.

And the pIC50 [4]?
Its pIC50 is 7.06.

And the remaining activity at 10 µM ([4]; 1 h, TG6-129 log([M]) -5, EP2-WT, read-out: % cAMP activity (normalized to WT))?
Its remaining activity at 10 µM is 3.2%.

And the remaining activity at 1 µM ([4]; 1 h, TG6-129 log([M]) -6, EP2-WT, read-out: % cAMP activity (normalized to WT))?
Its remaining activity at 1 µM is 6.32%.

And the remaining activity at 0.1 µM ([4]; 1 h, TG6-129 log([M]) -7, EP2-WT, read-out: % cAMP activity (normalized to WT))?
Its remaining activity at 0.1 µM is 34.4%.

And the remaining activity at 0.001 µM ([4]; 1 h, TG6-129 log([M]) -9, EP2-WT, read-out: % cAMP activity (normalized to WT))?
Its remaining activity at 0.001 µM is 94.3%.

And the remaining activity at 0.0001 µM ([4]; 1 h, TG6-129 log([M]) -10, EP2-WT, read-out: % cAMP activity (normalized to WT))?
Its remaining activity at 0.0001 µM is 104%.

And the remaining activity at 10 pM ([4]; 1 h, TG6-129 log([M]) -11, EP2-WT, read-out: % cAMP activity (normalized to WT))?
Its remaining activity at 10 pM is 100%.

What about the remaining activity at 1 pM ([4]; 1 h, TG6-129 log([M]) -12, EP2-WT, read-out: % cAMP activity (normalized to WT)) of the same molecule?
Its remaining activity at 1 pM is 88.6%.

What about the “TG6-129 cAMP activity (∆pIC50 from EP2 WT)” value ([4]; WT, single experiments 1st-3rd) of the same molecule?
Its value is -0.062 and 0.053 and 0.096.

What about the pIC50 [5] of the same molecule?
Its pIC50 is 7.23.

And the remaining activity at 0.0001 µM ([5]; 1 h, TG6-129 log([M]) -10, EP2-S308A, read-out: % cAMP activity (normalized to WT))?
The remaining activity at 0.0001 µM was 87.7%.

And the “TG6-129 cAMP activity (∆pIC50 from EP2 WT), Mean” value ([5]; S308A, Mean)?
The value was 0.246.

What about the pIC50 [6] of the same molecule?
Its pIC50 is 6.66.

What about the “TG6-129 cAMP activity (∆pIC50 from EP2 WT), Mean” value ([6]; T82A, Mean) of the same molecule?
The value was -0.316.

What about the “TG6-129 cAMP activity (∆pIC50 from EP2 WT)” value ([6]; T82A, single experiments 1st-3rd) of the same molecule?
The value was -0.298 and -0.466 and -0.185.

What about the remaining activity at 1 µM (EP2-I85V; 1 h, ligand log([M]) -6, Fig. S7B, read-out: % cAMP activity (normalized to WT)) of the same molecule?
Its remaining activity at 1 µM is 12.2%.

What about the remaining activity at 0.0001 µM (EP2-I85V; [8]) of the same molecule?
Its remaining activity at 0.0001 µM is 102%.

What about the remaining activity at 10 pM (EP2-I85V; [9]) of the same molecule?
Its remaining activity at 10 pM is 108%.

What about the “cAMP activity (∆pIC50 from EP2 WT)” value (EP2-I85V; Appendix Fig. S7A) of the same molecule?
Its value is -0.555 and -0.639 and -0.556.

And the remaining activity at 10 µM (EP2-M116L; 1 h, ligand log([M]) -5, Fig. S7B, read-out: % cAMP activity (normalized to WT))?
The remaining activity at 10 µM was 12.1%.

And the remaining activity at 0.0001 µM (EP2-M116L; [8])?
The remaining activity at 0.0001 µM was 107%.

And the remaining activity at 10 pM (EP2-M116L; [9])?
Its remaining activity at 10 pM is 124%.

What about the remaining activity at 1 pM (EP2-M116L; 1 h, ligand log([M]) -12, Fig. S7B, read-out: % cAMP activity (normalized to WT)) of the same molecule?
The remaining activity at 1 pM was 116%.

What about the “cAMP activity (∆pIC50 from EP2 WT)” value (EP2-M116L; Appendix Fig. S7A) of the same molecule?
Its value is -0.454 and -0.463 and -0.341.
